molecular target: T1, KRAS G12C 1-169, his-tagged protein, GDP-loaded (Homo sapiens, UniProt P01116, G12C); assay: Biochemical assay: covalent modification of KRAS G12C, analysed by mass spectrometry (RapidFire/TOF or Q-Exactive); assay type: binding; settings: Modification activity, modification percentage from MS peak intensities
T1 construct: KRAS G12C 1-169, his-tagged protein, GDP-loaded; His tag
Method: Test compounds are prepared as 10 mM stock solutions in DMSO (Fisher cat. #BP-231-100). KRAS G12C 1-169, his-tagged protein, GDP-loaded is diluted to 2 μM or 0.5 μM in buffer (20 mM Hepes, 150 mM NaCl, 1 mM MgCl2). Compounds are tested for activity as follows:
Compounds are diluted to 50× final test concentration in DMSO in 96-well storage plates. Compound stock solutions are vortexed before use and observed carefully for any sign of precipitation. Dilutions are as follow: • For 32 μM final compound concentration, compounds are diluted to 1600 μM (3 μL 10 mM compound stock+15.75 μL DMSO and mixed well by pipetting. • For 8 μM final compound concentration, compounds are diluted to 400 μM (2 μL 10 mM compound stock+48 μL DMSO) and mixed well by pipetting. 49 μL of the stock protein solution is added to each well of a 96-well PCR plate (Fisher cat #1423027). 1 μl of the diluted 50× compounds are added to appropriate wells in the PCR plate using 12-channel pipettor. Reactions are mixed carefully and thoroughly by pipetting up/down with a 200 μL multi-channel pipettor. The plate is sealed well with aluminum plate seal, and protein and compound are allowed to react for a desired amount of time. 5 μL of 2% formic acid (Fisher cat #A117) in de-ionized H2O is then added to each well followed by mixing with a pipette to quench the reaction. The plate is then resealed with aluminum seal and stored frozen on dry ice until analyzed as described below.
The above described assays are analyzed by mass spectrometry according to one of the following two procedures:
The MS instrument is set to positive polarity, 2 GHz resolution, and low mass (1700) mode and allowed to equilibrate for 30 minutes. The instrument is then calibrated, switched to acquisition mode and the appropriate method loaded.
After another 30 minute equilibration time, a blank batch (i.e., buffer) is run to ensure equipment is operating properly. The samples are thawed at 37° C. for 10 minutes, briefly centrifuged, and transfer to the bench top. Wells A1 and H12 are spiked with 1 μL 500 μM internal standard peptide, and the plates centrifuged at 2000×g for 5 minutes. The method is then run and masses of each individual well recorded.
The masses (for which integration data is desired) for each well are pasted into the platemap and exported from the analysis. Masses for the internal standards are exported as well. The data at 50 ppm is extracted for the +19 charge state, and identity of well A1 is assigned using the internal standard spike and integrated. Peak data is exported as a TOF list and the above steps are repeated individually, for the +20, +21, +22, +23, +24, and +25 charge states.
The masses and peak intensities of KRAS G12C protein species are measured using a Dionex RSLCnano system (Thermo Scientific) connected to a Q Exactive Plus mass spectrometer (Thermo Scientific).
20 μL of sample is each loaded onto a Aeris™ 3.6 μm WIDEPORE C4 200 Å, LC Column 50×2.1 mm column maintained at 40° C. at a flow rate of 600 μL/min with 80% Solvent A (0.1% formic acid in H2O) and 20% Solvent B (0.1% formic acid in acetonitrile). The liquid chromatography conditions are 20% solvent B for 1 minute, 20% to 60% solvent B for 1.5 minutes, 60% to 90% solvent for 0.5 minute, 90% solvent B for 0.2 minute, 90% to 20% solvent B for 0.2 minute, and then equilibrated for 1.6 minute before the following sample injection. The flow rate is maintained at 600 μL/min throughout the sample analysis.
The mass spectrometer is operated in profile mode at a resolution of 17500, 5 microscans, using 50 msec max injection time and an AGC target of 1×10^6, and a full mass range from 800-1850 m/z is recorded. The intact protein mode is applied for optimal ion transfer and maximum sensitivity. The ionization method is electrospray ionization, which used a spray voltage of 4 kV, sheath gas flow set to 50 AU, auxiliary gas flow set to 10 AU and sweep gas flow set to 1 AU. […]

| Structure (SMILES) | Binding % |
| --- | --- |
| C=CC(=O)N1CC2(CCN(c3nc(OCCN4CCC(F)(F)C4)nc(-c4c(C)ccc5[nH]ncc45)c3C#N)C2)C1 [Compound I-21, 4-(2-acryloyl-2,6-diazaspiro[3.4]octan-6-yl)-2-(2-(3,3-difluoropyrrolidin-1-yl)ethoxy)-6-(5-methyl-1H-indazol-4-yl)pyrimidine-5-carbonitrile] | ++ (++ indicates binding activity from 50 to 85%) |
| C=CC(=O)N1CC2(CCN(c3nc(OC[C@@H]4CCCN4C)nc(-c4cc(O)ccc4C)c3C#N)C2)C1 [Compound I-22, (S)-4-(2-acryloyl-2,6-diazaspiro[3.4]octan-6-yl)-6-(5-hydroxy-2-methylphenyl)-2-((1-methylpyrrolidin-2-yl)methoxy)pyrimidine-5-carbonitrile] | + (+ indicates binding activity greater than 0% and up to 50%) |
| C=CC(=O)N1CC2(CCN(c3nc(N4CCCC4=O)nc(-c4c(C)ccc5[nH]ncc45)c3C#N)C2)C1 [Compound I-23, 4-(2-acryloyl-2,6-diazaspiro[3.4]octan-6-yl)-6-(5-methyl-1H-indazol-4-yl)-2-(2-oxopyrrolidin-1-yl)pyrimidine-5-carbonitrile] | ++ (++ indicates binding activity from 50 to 85%) |
| C=CC(=O)N1CC2(CCN(c3nc(N4Cc5ccccc5C4)nc(-c4c(C)ccc5[nH]ncc45)c3C#N)C2)C1 [Compound I-24, 4-(2-acryloyl-2,6-diazaspiro[3.4]octan-6-yl)-2-(isoindolin-2-yl)-6-(5-methyl-1H-indazol-4-yl)pyrimidine-5-carbonitrile] | ++ (++ indicates binding activity from 50 to 85%) |
| C=CC(=O)N1CC2(CCN(c3nc(OC4CCOCC4)nc(-c4c(C)ccc5[nH]ncc45)c3C#N)C2)C1 [Compound I-25, 4-(2-acryloyl-2,6-diazaspiro[3.4]octan-6-yl)-6-(5-methyl-1H-indazol-4-yl)-2-((tetrahydro-2H-pyran-4-yl)oxy)pyrimidine-5-carbonitrile] | + (+ indicates binding activity greater than 0% and up to 50%) |
| C=CC(=O)N1CC2(CCN(c3nc(OC[C@@H]4CCCN4C)nc(-c4cccc5c4OCCO5)c3C#N)C2)C1 [Compound I-26, (S)-4-(2-acryloyl-2,6-diazaspiro[3.4]octan-6-yl)-6-(2,3-dihydrobenzo[b][1,4]dioxin-5-yl)-2-((1-methylpyrrolidin-2-yl)methoxy)pyrimidine-5-carbonitrile] | + (+ indicates binding activity greater than 0% and up to 50%) |
| C=CC(=O)N1CC2(CCN(c3nc(N4CCC(F)(F)C4)nc(-c4c(C)ccc5[nH]ncc45)c3C#N)C2)C1 [Compound I-27, 4-(2-acryloyl-2,6-diazaspiro[3.4]octan-6-yl)-2-(3,3-difluoropyrrolidin-1-yl)-6-(5-methyl-1H-indazol-4-yl)pyrimidine-5-carbonitrile] | +++ (+++ indicates binding activity greater than 85%) |
| C=CC(=O)N1CC2(CCN(c3nc(N4CCN(C)C(=O)C4)nc(-c4c(C)ccc5[nH]ncc45)c3C#N)C2)C1 [Compound I-28, 4-(2-acryloyl-2,6-diazaspiro[3.4]octan-6-yl)-6-(5-methyl-1H-indazol-4-yl)-2-(4-methyl-3-oxopiperazin-1-yl)pyrimidine-5-carbonitrile] | +++ (+++ indicates binding activity greater than 85%) |
| C=CC(=O)N1CC2(CCN(c3nc(OC[C@@H]4CCCN4C)nc(-c4c(C)ccc5[nH]cnc45)c3C#N)C2)C1 [Compound I-29, 4-(2-acryloyl-2,6-diazaspiro[3.4]octan-6-yl)-6-(5-methyl-1H-benzo[d]imidazol-4-yl)-2-(((S)-1-methylpyrrolidin-2-yl)methoxy)pyrimidine-5-carbonitrile] | + (+ indicates binding activity greater than 0% and up to 50%) |
| C=CC(=O)N1CC2(CCN(c3nc(N4CCN(C)CC4)nc(-c4c(C)ccc5[nH]ncc45)c3C#N)C2)C1 [Compound I-30, 4-(2-acryloyl-2,6-diazaspiro[3.4]octan-6-yl)-6-(5-methyl-1H-indazol-4-yl)-2-(4-methylpiperazin-1-yl)pyrimidine-5-carbonitrile] | +++ (+++ indicates binding activity greater than 85%) |

Source: patent US12134620B2 (ARAXES PHARMA LLC, priority 2018, dated 2024)
